Measurements from US6126909A, “Process and apparatus for the production of BI-212 and a use thereof” (Arch Development Corporation, priority 1999, dated 2000).

How the values were obtained:
[1] = test system: microscopic carcinoma; conditions: in vivo; cited from earlier work
[2] = test system: NIH:OVCAR-3 cells; assay: In vitro irradiation survival (clonogenic), monolayer; type: cell-based, human; conditions: OVCAR-3 monolayer
Experimental: (§1) In vitro studies were carried out using three well known cell lines, the cells from which were exposed to radiation from: (1) an X-ray source; (2) P-32 chromic phosphate; and (3) Bi-212 chloride. The three cell lines that were used are V-79, which is a Chinese hamster lung fibroblast, Ehrlich-Lettre Ascites carcinoma (ATCC CCL 77), which is an ascites producing -tumor, and NIH:OVCAR-3 (ATCC HTB 161), which is a human ovarian adenocarcinoma. These well known cell lines are predictive of what happens in vivo. The cells were grown as monolayers and into spheroid formations and subsequently irradiated, as described herein.
(§2) The V-79 cells were maintained under exponential growth conditions in minimal essential medium (MEM) supplemented with 10 percent fetal bovine serum. The Ehrlich-Lettre Ascites carcinoma cells were maintained in 90 percent NCTC 109 supplemented with 10 percent fetal bovine serum. The NIH:OVCAR-3 cells were maintained in RPMI 1640 and 10 percent fetal bovine serum.
(§3) Cells from each of the cell lines were irradiated by subjecting the cells to X-ray radiation, P-32, and Bi-212. The X-ray source that was used is a General Electric 250 kvp Maxitron, 26 […] (mA) (HVL 1.5 mm Cu) operated at a dose rate of 1.11 Greys per minute (Gy/min). The cells, in both monolayer and spheroid form were exposed at room temperature and then immediately plated for survival.
(§4) Cells in both monolayer and spheroid were exposed to P-32 chromic phosphate. The radiation dose to each sample was calculated as: […]
(§5) After exposure, the cells were washed in phosphate-buffered saline (PBS) and immediately plated for survival.
(§6) The cell lines were also irradiated using Bi-212. Bismuth-212 was eluted from a generator as described in the aforementioned patent to Atcher et al., which was a cation-exchange column supporting Ra-224, with 1 ml of 0.15 N HI, and the generator was purged with 2 ml of distilled deionized water. […] The filter was purged with 1 ml of distilled deionized water, and the radioactivity was assayed using a calibrated 3×3-in. […]
(§7) Cells were exposed over a period of four hours. The dose (D) per microCurie was calculated and corrected for decay as follows: [formula] where V=volume in milliliters, and […]
(§8) Following plating, survival measurements were taken for each of the irradiated cell samples. […] The plates were then stained with crystal violet and colonies greater than 50 cells were scored. The surviving fraction was then determined.
(§9) Intrinsic radiosensitivity (Do) was calculated from the survival curves. […] Relative biological effectiveness (RBE) was determined as the ratio of the absorbed dose of X-ray to that of alpha radiation to produce the same degree of biological effect.

[3] = test system: microscopic disease (ovarian carcinoma); conditions: stage I and stage II patients; cited from earlier work
[4] = test system: V-79 cells; assay: In vitro irradiation survival (clonogenic), monolayer; type: cell-based, Chinese hamster; conditions: V-79 monolayer
Experimental: as §1, §2, §3, §4, §5, §6, §7, §8, §9

[5] = test system: NIH:OVCAR-3 cells (spheroids); assay: In vitro irradiation survival, spheroids; type: cell-based, human; conditions: OVCAR-3 spheroids
Experimental: as §1, §2
To initiate the formation of the spheroids, cells at a concentration of about 500,000 cells per flask were seeded onto petri dishes base-cooked with 1 percent agar MEM without serum. After spheroids having a size of about 20 micrometers (μm) formed, the spheroids were transferred to spinner bottles and maintained for two to three weeks at a temperature of 37° C. in a CO2 incubator until they grew to 10 to 1000 μm. Prior to irradiation, the spheroids were sized and separated using a spheroid separation column.
as §3, §4, §5
The cell lines were also irradiated using Bi-212. […] The filter was purged with 1 ml of distilled deionized water, and the radioactivity was assayed using a calibrated 3×3-in. […]
as §7, §8
Intrinsic radiosensitivity (Do) was calculated from the survival curves. […]

[6] = dose increment reducing survival to 37 percent

SMILES: [211At] [At-211, astatine-211]
- Treatment and eradication of microscopic carcinoma [1]: effective in the treatment and eradication of microscopic carcinoma

SMILES: O=[32P]([O-])([O-])[O-].[Cr+3] [P-32 chromic phosphate, chromic phosphate (P-32), reference compound]
- D0 (intrinsic radiosensitivity) [2, 6]: 1.40 Gy
- Relative biological effectiveness (RBE) ([2]; relative to X-ray): 1.43
- Five-year survival rate [3]: 81%
- D0 (intrinsic radiosensitivity) [4, 6]: 1.25 Gy
- Relative biological effectiveness (RBE) ([4]; relative to X-ray): 1.63
- D0 (intrinsic radiosensitivity) ([5]; dose to 37 percent survival): 1.1 Gy
- Relative biological effectiveness (RBE) ([5]; relative to X-ray): 1.07

SMILES: [212Pb] [Pb-212, lead-212]
- Treatment and eradication of microscopic carcinoma [1]: effective in the treatment and eradication of microscopic carcinoma
